Measurements taken from patent US5994365A, “Substituted diazaanthracene compounds having pharmaceutical utility” (Diazans Limited, priority 1998, dated 1999).
Values joined by “and” are separate entries in the source; they are usually repeats but may differ in a detail not shown here. Equal values may be shown once.

How the values were obtained:
MRSA = assay: Minimal bactericidal concentration (MBC), 99.9% kill; format: cell-based, Staphylococcus aureus; conditions: Table F
Description: (§1) Broth microdilution was performed according to NCCLS guidelines. Microdilution panels were prepared using doubling dilutions of the dimer in ~250 μl plastic, 96-well trays. Inoculum suspension equal to a 0.5 McFarland standard were further diluted and added to the microdilution trays to achieve a final inoculum of 5×10^5 CFU/ml (5×10^4 CFU/well). Colony counts were performed to confirm the final inoculum, as well as its purity. Each strain was also tested in a growth control well containing only MHB for viability.
(§2) Various isolates were also tested for minimal bactericidal concentration (MBC) (see Tables D and F).
(§3) Subbed 50 μl of ≤5 clear wells

[1] = test system: Staneg (coagulase negative Staph); assay: as above; format: cell-based, Coagulase negative staphylococci; design: unit not given here
Description: as §1, §2
(§4) Subbed clear wells (50 μl) Inoculum 5 × 10^4 /well
(§5) 99.9% kill = 50 cols/well
as §3

Staph aureus = assay: Broth microdilution (NCCLS guidelines), MIC; format: cell-based, Staphylococcus aureus; design: MICs: unit not given beside the values; conditions: for 1st MIC / 2nd MIC: Table B
Description: The dimer product of Example 15 was obtained in powder form. A stock solution of 1280 mg/L of the dimer in dimethylsulfoxide (DMSO) was prepared and stored at room temperature in a foil-wrapped screw-capped tube (10 ml). Subsequent dilutions were prepared using cation-adjusted Mueller-Hinton broth (50 mg/L Mg). […] It was resuspended upon mixing each time an aliquot was taken from the solution.
Approximately 100 varied bacterial isolates were initially collected for screening, along with 9 ATCC organisms. Forty additional strains of Staphylococcus species were subsequently screened. All isolates were identified according to generally accepted lab protocol.
as §1
Microdilution trays were incubated at 35° C. in ambient air or 5% CO2 as appropriate for 16-20 hours. After incubation, the minimal inhibitory concentration (MIC) was defined as the lowest concentration of the dimer with no evidence of growth. Since 10 or more strains of most organisms were tested; a range of MICs was determined for each organism, as well as the concentration of the dimer that inhibited 50% of the strains (MIC50) and the concentration of the dimer that inhibited 90% of the strains (MIC90).

ATCC S. epid 14990 = assay: Minimal bactericidal concentration (MBC), 99.9% kill; format: cell-based
Description: as §1, §2, §3

S. aureus = assay: as above; format: cell-based, Staphylococcus aureus
Description: as §1, §2, §4, §5, §3

[2] = strain S. aureus 1 (line under ATCC 25923)
[3] = Table C, Pip/Taz S. aureus, 10 strains, solution 14 days old
[4] = Table C, S. aureus, 10 strains, solution 14 days old
[5] = Table E, Pip/Taz SA, 10 strains, fresh solution
[6] = Table E, S. aureus, 10 strains, fresh solution
[7] = Table G footnote, ATCC 25923, methicillin susceptible
[8] = Table G, S. aureus (2nd clinical isolate collection), 10 strains
[9] = Table G, S. aureus (pip-tazo study), 10 strains

In the case of “10,10'-bis(3,6-dimethyl-5,10-dihydro-1,8-diazaanthracen-5-one) and 5,5'-bis(3,6-dimethyl-5,10-dihydro-1,8-diazaanthracen-10-one) [Example 15]”, the MBC (MRSA; MRSA 2) is reported as 16 µg/mL, the MBC (MRSA; MRSA 4, skipped wells) is reported as > 16 µg/mL and the MBC (MRSA; MRSA 6) is reported as 2 µg/mL. For the same substance, the MBC ([1]; Table D, Staneg 1, skipped wells) was > 16, the MBC ([1]; Table D, Staneg 2, skipped wells) was > 4 and the MBC ([1]; Table D, Staneg 3) was 16. For the same substance, the MBC ([1]; Table D, Staneg 4) was > 16, the MBC ([1]; Table D, Staneg 5, skipped wells) was 16 and the MBC ([1]; Table D, Staneg 6) was 8. The MBC ([1]; Table D, Staneg 7, skipped wells) was > 16, the MBC ([1]; Table D, Staneg 8) was 16 and the MBC ([1]; Table F, Staneg 1) was > 1.0. For the same substance, the MBC ([1]; Table F, Staneg 4, skipped wells) was > 16, the MBC ([1]; Table F, Staneg 7) was 1.0 and the MIC50 (Staph aureus; Table A, 12 strains) was 0.5 µg/mL. The MIC90 (Staph aureus; Table A, 12 strains) was 1.0 µg/mL, the “Range of MICs” value (Staph aureus; Table A, 12 strains) was “.0625 to 1.0 mg/L” and the MIC (Staph aureus; Table A, ATCC MSSA 25923) was 0.0625 µg/mL. The MIC (Staph aureus; Table A, ATCC MSSA 29213) was 1.0 µg/mL, the 1st MIC (Staph aureus; [2]) was 0.0625 µg/mL and the 2nd MIC (Staph aureus; [2]) was 0.0625 µg/mL. It also gave a 1st MIC (Staph aureus; strain S. aureus 2) of 1 µg/mL, a 2nd MIC (Staph aureus; strain S. aureus 2) of 1 µg/mL and a 1st MIC (Staph aureus; strain S. aureus 3) of 0.5 µg/mL. It also gave a 2nd MIC (Staph aureus; strain S. aureus 3) of 0.125 µg/mL, a 1st MIC (Staph aureus; strain S. aureus 4) of 1 µg/mL and a 2nd MIC (Staph aureus; strain S. aureus 4) of 1 µg/mL. The 1st MIC (Staph aureus; strain S. aureus 5) was 1 µg/mL, the 1st MIC (Staph aureus; strain S. aureus 6) was 0.125 µg/mL and the 2nd MIC (Staph aureus; strain S. aureus 6) was 0.25 µg/mL. For the same substance, the 1st MIC (Staph aureus; strain S. aureus 7) was 0.5 µg/mL, the 2nd MIC (Staph aureus; strain S. aureus 7) was 0.5 µg/mL and the 1st MIC (Staph aureus; strain S. aureus 8) was 0.5 µg/mL. The 2nd MIC (Staph aureus; strain S. aureus 8) was 1 µg/mL, the MICs (Staph aureus; Table C, ATCC MSSA 25923, solution 14 days old, listed as Dimer) was 8 and > 16 and the MICs (Staph aureus; Table C, ATCC MSSA 29213, solution 14 days old, listed as Dimer, in µg/mL) was 4 and 8. The MIC50 (Staph aureus; [3]) was 2 µg/mL, the MIC90 (Staph aureus; [3]) was 8 µg/mL and the “Range of MICs” value (Staph aureus; Table C, Pip/Taz S. aureus, 10 strains, solution 14 days old, in µg/mL) was 2-16. The MIC50 (Staph aureus; [4]) was 4 µg/mL, the MIC90 (Staph aureus; [4]) was 16 µg/mL and the “Range of MICs” value (Staph aureus; Table C, S. aureus, 10 strains, solution 14 days old, in µg/mL) was 2-8. It also gave an MIC (Staph aureus; Table D, S. aureus 1) of 2 µg/mL, an MIC (Staph aureus; Table D, S. aureus 2) of 16 µg/mL and an MIC (Staph aureus; Table D, S. aureus 3) of 8 µg/mL. For the same substance, the MIC (Staph aureus; Table D, S. aureus 4) was 4 µg/mL, the MIC (Staph aureus; Table D, S. aureus 5) was 16 µg/mL and the MIC (Staph aureus; Table D, S. aureus 6) was 2 µg/mL. It also gave an MIC (Staph aureus; Table D, S. aureus 7) of 8 µg/mL, an MIC (Staph aureus; Table D, S. aureus 8) of 2 µg/mL and an MIC (Staph aureus; Table D, S. aureus 9) of 2 µg/mL. For the same substance, the MIC (Staph aureus; Table D, S. aureus 10) was 4 µg/mL, the MICs (Staph aureus; Table E, ATCC MSSA 25923, fresh solution, listed as Dimer, in µg/mL) was 0.125 and 0.25 and the MICs (Staph aureus; Table E, ATCC MSSA 29213 (×2), fresh solution, in µg/mL) was 2. The MIC50 (Staph aureus; [5]) was 1 µg/mL, the MIC90 (Staph aureus; [5]) was 2 µg/mL and the “Range of MICs” value (Staph aureus; Table E, Pip/Taz SA, 10 strains, fresh solution, in µg/mL) was 0.25-2. For the same substance, the MIC50 (Staph aureus; [6]) was 0.5 µg/mL, the MIC90 (Staph aureus; [6]) was 1 µg/mL and the “Range of MICs” value (Staph aureus; Table E, S. aureus, 10 strains, fresh solution, in µg/mL) was 0.25-1. It also gave an MIC (Staph aureus; Table F, ATCC S. aureus 25923) of 0.25 µg/mL, an MIC (Staph aureus; Table F, ATCC S. aureus 29213) of 2 µg/mL and an MIC (Staph aureus; Table F, Pip/Taz S. aureus 1) of 2 µg/mL. The MIC (Staph aureus; Table F, Pip/Taz S. aureus 3) was 0.25 µg/mL, the MIC (Staph aureus; Table F, Pip/Taz S. aureus 7) was 1 µg/mL and the MIC (Staph aureus; Table F, S. aureus 1) was 0.25 µg/mL. The MIC (Staph aureus; Table F, S. aureus 2) was 1 µg/mL, the MIC (Staph aureus; Table F, S. aureus 8) was 0.5 µg/mL and the MIC (Staph aureus; [7]) was 0.25 µg/mL. For the same substance, the MIC (Staph aureus; Table G footnote, ATCC 29213, methicillin susceptible) was 2 µg/mL, the MIC50 (Staph aureus; [8]) was 0.5 µg/mL and the MIC90 (Staph aureus; [8]) was 1 µg/mL. For the same substance, the “Range of MICs” value (Staph aureus; [8]) was 0.25 to 1 mg/L, the MIC50 (Staph aureus; [9]) was 1 µg/mL and the MIC90 (Staph aureus; [9]) was 2 µg/mL. For the same substance, the “Range of MICs” value (Staph aureus; [9]) was 0.25 to 2 mg/L, the MBC (ATCC S. epid 14990; Table F, ATCC S. epid 14990) was > 0.5 µg/mL and the MBC (ATCC S. epid 14990; Table G footnote, ATCC 14990 (coag neg staph)) was ≥ 0.5 µg/mL. For the same substance, the MBC (S. aureus; Table D, S. aureus 1) was 2 µg/mL, the MBC (S. aureus; Table D, S. aureus 2) was > 16 µg/mL and the MBC (S. aureus; Table D, S. aureus 3) was 16 µg/mL. For the same substance, the MBC (S. aureus; Table D, S. aureus 4) was 8 µg/mL, the MBC (S. aureus; Table D, S. aureus 5) was > 16 µg/mL and the MBC (S. aureus; Table D, S. aureus 6, skipped wells) was > 16 µg/mL. For the same substance, the MBC (S. aureus; Table D, S. aureus 7) was > 16 µg/mL, the MBC (S. aureus; Table D, S. aureus 8, skipped wells) was > 16 µg/mL and the MBC (S. aureus; Table F, ATCC S. aureus 25923) was 4 µg/mL. For the same substance, the MBC (S. aureus; Table F, ATCC S. aureus 29213, skipped wells) was > 16 µg/mL, the MBC (S. aureus; Table F, Pip/Taz S. aureus 1) was 8 µg/mL and the MBC (S. aureus; Table F, Pip/Taz S. aureus 3) was 4 µg/mL. It also gave an MBC (S. aureus; Table F, Pip/Taz S. aureus 7) of 2 µg/mL, an MBC (S. aureus; Table F, S. aureus 1, skipped wells) of 4 µg/mL and an MBC (S. aureus; Table F, S. aureus 2) of 1 µg/mL. For the same substance, the MBC (S. aureus; Table F, S. aureus 8, skipped wells) was ≥ 8 µg/mL, the MBC (S. aureus; [7]) was 4 µg/mL and the MBC (S. aureus; Table G footnote, ATCC 29213, methicillin susceptible, skipped wells) was 16 µg/mL.
